Reference: patent US5935977A, “Substituted vinyl pyridine derivative and drugs containing the same” (SS Pharmaceutical Co., Ltd., priority 1996, dated 1999)

What was measured:
[1] = test system: TNF-α; experiment: TNF-α Production Inhibition Test in LPS-treated U 937 cells; assay type: cell-based; conditions: U 937 cells differentiated with PMA; LPS 10 ng/ml, 6 hours; human TNF-α ELISA
Method: Human promonocytic leukemia cells (U 937 cells, 1×10^5 cells/400 μl) were inoculated on a 24-well culture plate. By use of an RPMI 1640 culture liquid (supplemented with 10% FCS) containing 50 nM PMA, the cells were incubated for 72 hours, to thereby induce differentiation into monocyte/macrophage (see Sarkiz Daniel-Issakani, Allem M. Spiegel and Berta Strulovici (1989), J. Biol. Chem. 264, p20240-20247). Subsequently, the culture supernatant was discarded, and an RPMI 1640 culture liquid (supplemented with 10% FCS) containing 10 ng/ml of LPS (lipopolysaccharide; E. coli, 0111:B4) was added. Each compound was added one hour before the LPS treatment, so as to achieve concentrations of 100 μM, 10 μM, 1 μM, and 0.1 μM. Six hours after addition of LPS, the quantity of produced TNF-α in the supernatant was measured by use of a human TNF-α ELISA kit (Amersham, code RPN 2758), For respective doses of each compound, % control was calculated, wherein the quantity of TNF-α produced when LPS treatment was performed and the compound was not added was considered 100%. Further, based on primary regression curves, there were calculated IC50 values in terms of TNF-α production inhibitory activity for respective compounds.

[2] = test system: PDE III; experiment: PDE Inhibitory Activity Test, PDE III; assay type: biochemical; conditions: human platelet PDE III; substrate 1 μM; 20 min at 30° C.
[3] = test system: PDE IV; experiment: PDE Inhibitory Activity Test, PDE IV; assay type: biochemical; conditions: PDE IV from human histocytic lymphoma (U-937); substrate 1 μM; 20 min at 30° C.
[4] = target: T1, PDE V (Homo sapiens, UniProt O76074); experiment: PDE Inhibitory Activity Test, PDE V; assay type: biochemical; conditions: human platelet PDE V; substrate 1 μM; 20 min at 30° C.
T1 construct: isolated from human tissue and purified in accordance with the method described in literature; from tissue; host or cells: human platelets
Method: A variety of PDE isozymes shown below were isolated from human tissue and purified in accordance with the method described in literature.
H. Hidaka, et al., Bioph. Bioch. Acta, (1976), 429, p485
C. D. Nicholson, et al., Trends Pharmacol. Sci., (1991), 12, p19.
The PDE activity was determined through use of a modified two-step assay method described by Hidaka et al. (Bioph. Bioch. Acta., (1976), 429, p485),
Briefly, [^3 H]cAMP and [^3 H]cGMP are hydrolyzed by their respective PDE isozymes to form [^3 H]5'-AMP and [^3 H]5'-GMP, respectively. Subsequently, [^3 H]5^1 -AMP and [^3 H]5^1 -GMP are transformed into [^3 H]adenosine and [^3 H]guanosine, respectively, due to the action of nucleotidases. Unreacted [^3 H]cAMP and [^3 H]cGMP are removed, causing them to bond to ion exchange resin, and the quantity of eluted [^3 H]adenosine or [^3 H]guanosine was counted in a liquid scintillation counter.
The diluted enzyme solution contains 50 mM Tris-HCl (pH 8.0), 5 mM MgCl2, and 50 μg of bovine serum albumin, wherein the concentrations represent final concentrations. The substrate concentration is 1 μM. The concentration of each test compound varies between 0.1 nM and 100 μM. Each test sample is incubated for 20 minutes at 30° C., and the PDE reaction is terminated by boiling for 2 minutes. The nucleotidase reaction was induced by adding snake venom nucleotidase to the above-described reaction mixture and incubating the resultant mixture for 20 minutes at 30° C.

[5] = test system: PDE; conditions: cited from earlier work
[6] = in vivo; cited from earlier work
[7] = test system: PDE IV; conditions: PDE IV vs other PDE isozymes; cited from earlier work

Structure (SMILES)	IC50 [1] [µM]	IC50 [2] [µM]	IC50 [3] [µM]	IC50 [4] [µM]	PDE inhibition selectivity [5]	safety range [6]	potency at PDE IV relative to other PDE isozymes [7] [times]
COc1cnc(/C(C#N)=C/c2c(OC)cncc2OC)cc1OC1CCCC1 [Example 11, (Z)-2-(4-Cyclopentyloxy-5-methoxy-2-pyridyl)-3-(3,5-dimethoxy-4-pyridyl)propenenitrile]	5.5	–	–	–	–	–	–
CCCCOc1cc(/C(C#N)=C/c2c(Cl)cncc2Cl)ncc1OC [Example 16, (Z)-2-(4-Butyloxy-5-methoxy-2-pyridyl)-3-(3,5-dichloro-4-pyridyl)propenenitrile]	13.1	15	0.015	31	–	–	–
CCOc1cnc(/C(C#N)=C/c2c(Cl)cncc2Cl)cc1OC1CCCC1 [Example 18, (Z)-2-(4-Cyclopentyloxy-5-ethoxy-2-pyridyl)-3-(3,5-dichloro-4-pyridyl)propenenitrile]	–	18	0.036	12	–	–	–
COc1ccc(C2CNC(=O)C2)cc1OC1CCCC1 (centres unmarked) [Rolipram, reference compound]	100	> 100	5	–	–	–	–
COc1cnc(/C(C#N)=C/c2c(Cl)cncc2Cl)cc1OC1Cc2ccccc2C1 [Example 19, (Z)-3-(3,5-Dichloro-4-pyridyl)-2-[4-(2-indanyloxy)-5-methoxy-2-pyridyl]propenenitrile]	2.9	> 100	0.00065	> 100	–	–	–
COc1cnc(/C(C#N)=C/c2c(Cl)cncc2Cl)cc1O[C@@H]1C[C@H]2CC[C@@H]1C2 (relative stereo) [Example 21, (Z)-3-(3,5-Dichloro-4-pyridyl)-2-[5-methoxy-4-(exo-2-norbornyloxy)-2-pyridyl]propenenitrile]	13.3	–	–	–	–	–	–
COc1cnc(/C(C#N)=C/c2c(Cl)cncc2Cl)cc1OCCCc1ccccc1 [Example 15, (Z)-3-(3,5-Dichloro-4-pyridyl)-2-[5-methoxy-4-(3-phenylpropyloxy)-2-pyridyl]propenenitrile]	–	91	0.0048	56	–	–	–
COc1cnc(/C(C#N)=C/c2c(Cl)cncc2Cl)cc1OC1CCCC1 [Example 1, (Z)-2-(4-cyclopentyloxy-5-methoxy-2-pyridyl)-3-(3,5-dichloro-4-pyridyl)propenenitrile]	10.2	10	0.0026	> 100	–	–	–
COc1cnc(/C(C#N)=C/c2ccnc3ccccc23)cc1OC1CCCC1 [Example 10, (Z)-2-(4-Cyclopentyloxy-5-methoxy-2-pyridyl)-3-(4-quinolyl)propenenitrile]	10	–	–	–	–	–	–
CCC(CC)Oc1cc(/C(C#N)=C/c2c(Cl)cncc2Cl)ncc1OC [Example 17, (Z)-3-(3,5-Dichloro-4-pyridyl)-2-[4-(1-ethylpropyloxy)-5-methoxy-2-pyridyl]propenenitrile]	–	> 100	0.036	> 100	–	–	–
COc1cnc(/C(C#N)=C/c2ccncc2)cc1OC1CCCC1 [Example 4, (Z)-2-(4-Cyclopentyloxy-5-methoxy-2-pyridyl)-3-(4-pyridyl)propenenitrile]	7.6	–	–	–	–	–	–
COc1cnc(/C(C#N)=C/c2c(Cl)cncc2Cl)cc1OC1CCOC1 (centres unmarked) [Example 20, (Z)-3-(3,5-Dichloro-4-pyridyl)-2-[5-methoxy-4-(tetrahydro-3-furanyloxy)-2-pyridyl]propenenitrile]	7.1	56	0.011	> 100	–	–	–
Cn1c(=O)c2[nH]cnc2n(C)c1=O [theophylline]	–	–	–	–	inhibits PDE non-selectively	rather narrow	–
COc1cnc(/C(C#N)=C/c2c(Cl)cncc2Cl)cc1OCCc1ccccc1 [Example 14, (Z)-3-(3,5-Dichloro-4-pyridyl)-2-(5-methoxy-4-phenethyloxy-2-pyridyl)propenenitrile]	–	> 100	0.0059	5.6	–	–	–
CCCCOc1cc(CC2CNC(=O)N2)ccc1OC (racemic) [Ro20-1724]	–	–	–	–	–	–	100
